Laboratory results from US20200030355A1, “COMBINATION THERAPY FOR TREATING CANCER” (Epizyme, Inc., priority 2014, published 2020).
Structures can show the parent of a compound that is named as a salt.

Assays:
Format in all cases: cell-based, human
MOLM-13 (MLL-AF9) = assay: Combination proliferation study with Compound A2 (ATP/CellTiter-Glo, Chou-Talalay combination index); conditions: 7 Day Cotreatment Model, Table 4
Description: (§1) The acute myelogenous leukemia cell lines MV4-11 (MLL-AF4) and MOLM-13 (MLL-AF9) were obtained from American Type Culture Collection (ATCC; Rockville, Md.) and Deutsche Sammlung von Mikroorganismen and Zellkulturen (DSMZ; Braunschweig, Germany) respectively.
(§2) Studies were performed using MLL-rearranged cell lines in vitro to evaluate the anti-proliferative effect of a combination of two agents together on cell growth. Initial proliferation studies were performed to determine the IC50 of a given compound in each cell line. The cell counts were measured by ATP quantitation using the Promega Cell Titer Glo kit and luminescence values corresponded to the amount of ATP in a given well.
(§3) Compounds were evaluated for synergy in the co-treatment phase by testing the compounds in a concentration range which was bracketed around their IC50 values. The compounds were plated to a 96 well plate in a matrix format (FIG. 3) which includes increasing concentrations of each drug in the combination in a constant ratio, in addition to the effect of each compound alone in the study. Cells were seeded and grown in the log-linear phase for 3 or 7 days in the co-treatment phase. Minimum inhibition (DMSO alone) controls were used in each plate to calculate fraction affected (Fa) of a test well. DMSO concentration was kept at 0.1% v/v.
(§4) The drug combination analysis was performed utilizing the Chou-Talalay method Synergy was determined using the software package Calcusyn by Biosoft. The combination index (CI) is a quantitative term used to describe the level of synergy or antagonism in a given test system. A combination index less than one indicates synergy, and a CI greater than one indicates antagonism. Further, strong synergism is achieved when the CI value falls below 0.3.
(§5) Graphs representing values of combination index (CI) versus Fractional effect (Fa) known as Fa-CI plots were generated and synergy was evaluated. Drug synergy was statistically defined by CI values less than 1, antagonism by CI>1 and additive effect by CI equal to 1.
Graphs representing values of combination index (CI) versus Fractional effect (Fa) known as Fa-CI plots were generated and synergy was evaluated. Drug synergy was statistically defined by CI values less than 1, antagonism by CI>1 and additive effect by CI equal to 1. […]
Cell viability was measured via ATP content using CellTiter-Glo® (Promega).
as §2, with “Proliferation studies” for “Studies”, “MOLM-13, MV4-11 and SKM-1” for “MLL-rearranged”, “cancer cell killing” for “anti-proliferative”, “IC50 values” for “IC50”, “correspond” for “corresponded”, “well. […]” for “well.”
Compounds evaluated for synergy in the co-treatment phase were tested in a range which was bracketed around the IC50's.

MV4-11 (MLL-AF4) = assay: as above; conditions: for Combination with Compound A2, MV4-11 (MLL-AF4) / Combination with Compound A2, MV4-11: 7 Day Cotreatment Model; for Combination with Compound A2, MV4-11 (MLL-AF4): Table 4; for Combination with Compound A2, MV4-11: Table 5
Description: as §1, §2, §3, §4, §5, §5
The HP-D300 digital dispenser (Tecan) was used to dispense compounds in a combinatorial matrix. […] Cell viability was measured via ATP content using CellTiter-Glo® (Promega).
Viability was determined using CellTiter-Glo® (Promega).
as §2, with “Proliferation studies” for “Studies”, “MOLM-13, MV4-11 and SKM-1” for “MLL-rearranged”, “cancer cell killing” for “anti-proliferative”, “IC50 values” for “IC50”, “correspond” for “corresponded”
These studies were performed to evaluate both the combinatorial effect of compounds on cell killing and the durability of the effect by washing out one of the agents.
Compounds evaluated for synergy in the co-treatment phase were tested in a range which was bracketed around the IC50's. The compounds were plated to a 96 well plate in a matrix format which includes increasing concentrations of each drug in the combination in a constant ratio, in addition to the effect of each compound alone in the study.

MOLM-13 cells = assay: EPZ-5676 300 nM 7-day pre-treatment, then second compound 72 hours, ATPLite, IC50 shift (Example 6); conditions: 300 nM EPZ-5676 or DMSO 7-day pre-treatment, then 2nd compound 72 hours, Synergy = IC50 of 2nd compound decreased by 2-fold or more vs DMSO control
Description: Cells were then equilibrated in incubators for 24 hours before treatment with a second compound. Treated assay plates were incubated with a second compound for 72 hours. After this time, plates were developed for endpoint analysis using ATPLite to measure ATP content, which is used as an indicator of cell viability.
“N/D” means that IC50 of the second compound could not be determined for both conditions.

Row | SMILES | Combination with Compound A2, MOLM-13 (MLL-AF9) (MOLM-13 (MLL-AF9)) | Combination with Compound A2, MV4-11 (MLL-AF4) (MV4-11 (MLL-AF4)) | MOLM-13 (summary of combination study: EPZ-5676 + 2nd compound) (MOLM-13 cells) | other results
1 | CCCc1cc2c(N3CCN(C4=NCC(C)(C)S4)CC3)ncnc2s1 [Menin-MLL inhibitor MI-2] | Synergy (Drug synergy was statistically defined by CI values less than 1) | Synergy (Drug synergy was statistically defined by CI values less than 1) | – | –
2 | S=c1nc[nH]c2nc[nH]c12 [Mercaptopurine] | Additive --> Synergy | Additive (additive effect by CI equal to 1) | – | –
3 | CN(Cc1cnc2nc(N)nc(N)c2n1)c1ccc(C(=O)N[C@@H](CCC(=O)O)C(=O)O)cc1 [Methotrexate] | Additive (additive effect by CI equal to 1) | Additive (additive effect by CI equal to 1) | – | –
4 | CO[C@@H]1[C@H](N(C)C(=O)c2ccccc2)C[C@H]2O[C@]1(C)n1c3ccccc3c3c4c(c5c6ccccc6n2c5c31)C(=O)NC4 [Midostaurin] | – | Synergy (Drug synergy was statistically defined by CI values less than 1) | – | –
5 | O=C1c2c(O)ccc(O)c2C(=O)c2c(NCCNCCO)ccc(NCCNCCO)c21 [Mitoxantrone] | Synergy (Drug synergy was statistically defined by CI values less than 1) | Synergy (Drug synergy was statistically defined by CI values less than 1) | – | Combination of Compound A2 and anti-cancer agent, MV4-11 (MV4-11 (MLL-AF4); 7 Day Cotreatment): Synergy (A combination index less than one indicates synergy)
6 | COC1=CC(c2cc3ccccc3[nH]2)=N/C1=C\c1[nH]c(C)cc1C [Obatoclax] | Additive (additive effect by CI equal to 1) | – | – | –
7 | O=C(Nc1ccccc1-c1cn2c(CN3CCNCC3)csc2n1)c1cnc2ccccc2n1 [SRT-1720] | – | Synergy (Drug synergy was statistically defined by CI values less than 1) | Synergy (considered synergistic if the IC50 value of the second compound decreased by 2-fold or more when EPZ-5676 was added as compared to the DMSO control) | –
8 | CO[C@H]1C[C@@H]2CC[C@@H](C)[C@@](O)(O2)C(=O)C(=O)N2CCCC[C@H]2C(=O)O[C@H]([C@H](C)C[C@@H]2CC[C@@H](OC(=O)C(C)(CO)CO)[C@H](OC)C2)CC(=O)[C@H](C)/C=C(\C)[C@@H](O)[C@@H](OC)C(=O)[C@H](C)C[C@H](C)/C=C/C=C/C=C/1C [Temsirolimus] | – | – | Synergy (considered synergistic if the IC50 value of the second compound decreased by 2-fold or more when EPZ-5676 was added as compared to the DMSO control) | –
9 | Cn1cncc1[C@@](N)(c1ccc(Cl)cc1)c1ccc2c(c1)c(-c1cccc(Cl)c1)cc(=O)n2C [Tipifarnib] | – | – | Synergy (considered synergistic if the IC50 value of the second compound decreased by 2-fold or more when EPZ-5676 was added as compared to the DMSO control) | Combination with Compound A2, MV4-11 (MV4-11 (MLL-AF4)): Synergy (Drug synergy was statistically defined by CI values less than 1)
10 | CC[C@@]1(O)C(=O)OCc2c1cc1n(c2=O)Cc2cc3c(CN(C)C)c(O)ccc3nc2-1 [Topotecan Hydrochloride] | – | – | Synergy (considered synergistic if the IC50 value of the second compound decreased by 2-fold or more when EPZ-5676 was added as compared to the DMSO control) | –
11 | CC(C)C[C@H](NC(=O)[C@H](Cc1ccccc1)NC(=O)c1cnccn1)B(O)O [Velcade, bortezomib] | Combination Benefit | – | – | –
12 | CC[C@@H]1C(=O)N(C)c2cnc(Nc3ccc(C(=O)N[C@H]4CC[C@H](N5CCN(CC6CC6)CC5)CC4)cc3OC)nc2N1C(C)C [Volasertib] | – | – | – | Combination with Compound A2, MV4-11 (MV4-11 (MLL-AF4)): Antagonstic
13 | COc1ccc(Cl)c(Nc2nc3ccccc3nc2NS(=O)(=O)c2cccc(NC(=O)C(C)(C)N)c2)c1 [XL147] | – | – | Synergy (considered synergistic if the IC50 value of the second compound decreased by 2-fold or more when EPZ-5676 was added as compared to the DMSO control) | –
